In PubChem BioAssay (NCI):
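Five compound concentrations were applied to cells in 96-well plates for 48 hours; endpoints were derived by simple linear interpolation of the resulting dose-response curve. GI50 marks 50% less growth. TGI is the concentration that stops growth completely.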

Assays:
Assay in all cases: growth of human tumour cells (NCI), 48 h
SF-539 CNS = test system: SF-539 CNS
CAKI-1 renal = test system: CAKI-1 renal
MDA-MB-435 = test system: MDA-MB-435
MDA-MB-231 breast = test system: MDA-MB-231 breast
HL-60(TB) leukemia = test system: HL-60(TB) leukemia
SR leukemia = test system: SR leukemia
ACHN renal = test system: ACHN renal
SK-MEL-28 melanoma = test system: SK-MEL-28 melanoma
T-47D breast = test system: T-47D breast
SF-268 CNS = test system: SF-268 CNS
IGROV1 ovarian = test system: IGROV1 ovarian
NCI-H226 lung = test system: NCI-H226 lung
UO-31 renal = test system: UO-31 renal
NCI/ADR-RES ovarian = test system: NCI/ADR-RES ovarian
UACC-257 melanoma = test system: UACC-257 melanoma
SNB-75 CNS = test system: SNB-75 CNS
HOP-92 NSCLC = test system: HOP-92 NSCLC
HCT-15 colon = test system: HCT-15 colon
SW-620 colon = test system: SW-620 colon
DU-145 prostate = test system: DU-145 prostate
SK-MEL-5 melanoma = test system: SK-MEL-5 melanoma
OVCAR-4 ovarian = test system: OVCAR-4 ovarian
MALME-3M melanoma = test system: MALME-3M melanoma
BT-549 breast = test system: BT-549 breast
786-0 renal = test system: 786-0 renal
SN12C renal = test system: SN12C renal
UACC-62 melanoma = test system: UACC-62 melanoma
CCRF-CEM leukemia = test system: CCRF-CEM leukemia
PC-3 prostate = test system: PC-3 prostate
OVCAR-5 ovarian = test system: OVCAR-5 ovarian
SF-295 CNS = test system: SF-295 CNS
RXF 393 renal = test system: RXF 393 renal
K-562 leukemia = test system: K-562 leukemia
OVCAR-3 ovarian = test system: OVCAR-3 ovarian
A498 renal = test system: A498 renal
KM12 colon = test system: KM12 colon
OVCAR-8 ovarian = test system: OVCAR-8 ovarian
SK-OV-3 ovarian = test system: SK-OV-3 ovarian
M14 melanoma = test system: M14 melanoma
HOP-62 NSCLC = test system: HOP-62 NSCLC
HT29 colon = test system: HT29 colon
NCI-H23 lung = test system: NCI-H23 lung
RPMI-8226 leukemia = test system: RPMI-8226 leukemia
LOX IMVI melanoma = test system: LOX IMVI melanoma
MOLT-4 leukemia = test system: MOLT-4 leukemia
EKVX NSCLC = test system: EKVX NSCLC
NCI-H460 lung = test system: NCI-H460 lung
MCF7 breast = test system: MCF7 breast
SNB-19 CNS = test system: SNB-19 CNS
TK-10 renal = test system: TK-10 renal
HS 578T breast = test system: HS 578T breast
COLO 205 colon = test system: COLO 205 colon
SK-MEL-2 melanoma = test system: SK-MEL-2 melanoma
A549 NSCLC = test system: A549 NSCLC
NCI-H522 lung = test system: NCI-H522 lung
HCT-116 colon = test system: HCT-116 colon
U251 CNS = test system: U251 CNS
HCC-2998 colon = test system: HCC-2998 colon

O=CNc1c(Cl)cc2c(c1Cl)Cc1cc([N+](=O)[O-])ccc1-2 showed a GI50 (SF-539 CNS) of 6.15 µM, a TGI (SF-539 CNS) greater than 100 µM and a GI50 (CAKI-1 renal) of 8.34 µM. For the same compound, the TGI (CAKI-1 renal) was greater than 91.2 µM, the GI50 (MDA-MB-435) was 1.46 µM and the TGI (MDA-MB-435) was 3.63 µM. It also gave a GI50 (MDA-MB-231 breast) of 8.16 µM, a TGI (MDA-MB-231 breast) of 47.7 µM and a GI50 (HL-60(TB) leukemia) of 3.21 µM. The TGI (HL-60(TB) leukemia) was greater than 100 µM, the GI50 (SR leukemia) was 2.61 µM and the TGI (SR leukemia) was greater than 63.1 µM. The GI50 (ACHN renal) was 7.83 µM, the TGI (ACHN renal) was greater than 100 µM and the GI50 (SK-MEL-28 melanoma) was 20.2 µM. It also gave a TGI (SK-MEL-28 melanoma) greater than 100 µM, a GI50 (T-47D breast) of 5.49 µM and a TGI (T-47D breast) greater than 100 µM. It also gave a GI50 (SF-268 CNS) of 6.63 µM, a TGI (SF-268 CNS) greater than 100 µM and a GI50 (IGROV1 ovarian) of 0.923 µM. It also gave a TGI (IGROV1 ovarian) of 38.7 µM, a GI50 (NCI-H226 lung) of 4.21 µM and a TGI (NCI-H226 lung) greater than 94.1 µM. For the same compound, the GI50 (UO-31 renal) was 1.81 µM, the TGI (UO-31 renal) was 29.3 µM and the GI50 (NCI/ADR-RES ovarian) was 4.49 µM. It also gave a TGI (NCI/ADR-RES ovarian) of 38.3 µM, a GI50 (UACC-257 melanoma) of 64 µM and a TGI (UACC-257 melanoma) greater than 100 µM. For the same compound, the GI50 (SNB-75 CNS) was 2.84 µM, the TGI (SNB-75 CNS) was 21.5 µM and the GI50 (HOP-92 NSCLC) was 6.73 µM. For the same compound, the TGI (HOP-92 NSCLC) was greater than 100 µM, the GI50 (HCT-15 colon) was 3.27 µM and the TGI (HCT-15 colon) was greater than 100 µM. It also gave a GI50 (SW-620 colon) of 3.33 µM, a TGI (SW-620 colon) greater than 100 µM and a GI50 (DU-145 prostate) of 7.72 µM. The TGI (DU-145 prostate) was greater than 49.9 µM, the GI50 (SK-MEL-5 melanoma) was 1.11 µM and the TGI (SK-MEL-5 melanoma) was greater than 100 µM. For the same compound, the GI50 (OVCAR-4 ovarian) was 6.11 µM, the TGI (OVCAR-4 ovarian) was greater than 100 µM and the GI50 (MALME-3M melanoma) was 3.85 µM. It also gave a TGI (MALME-3M melanoma) greater than 100 µM, a GI50 (BT-549 breast) of 16.3 µM and a TGI (BT-549 breast) greater than 86.9 µM. For the same compound, the GI50 (786-0 renal) was 20 µM, the TGI (786-0 renal) was greater than 77 µM and the GI50 (SN12C renal) was 14.4 µM. For the same compound, the TGI (SN12C renal) was greater than 100 µM, the GI50 (UACC-62 melanoma) was 3.98 µM and the TGI (UACC-62 melanoma) was greater than 100 µM. The GI50 (CCRF-CEM leukemia) was 0.445 µM, the TGI (CCRF-CEM leukemia) was greater than 100 µM and the GI50 (PC-3 prostate) was 8.06 µM. For the same compound, the TGI (PC-3 prostate) was greater than 100 µM, the GI50 (OVCAR-5 ovarian) was 16.6 µM and the TGI (OVCAR-5 ovarian) was greater than 100 µM. For the same compound, the GI50 (SF-295 CNS) was 3.05 µM, the TGI (SF-295 CNS) was 14.3 µM and the GI50 (RXF 393 renal) was 10.8 µM. It also gave a TGI (RXF 393 renal) of 46.4 µM, a GI50 (K-562 leukemia) of 1.38 µM and a TGI (K-562 leukemia) greater than 100 µM. It also gave a GI50 (OVCAR-3 ovarian) of 1.34 µM, a TGI (OVCAR-3 ovarian) of 8.87 µM and a GI50 (A498 renal) of 4.07 µM. It also gave a TGI (A498 renal) of 48.4 µM, a GI50 (KM12 colon) of 2.51 µM and a TGI (KM12 colon) of 11.9 µM. For the same compound, the GI50 (OVCAR-8 ovarian) was 11.6 µM, the TGI (OVCAR-8 ovarian) was greater than 100 µM and the GI50 (SK-OV-3 ovarian) was 9.92 µM. For the same compound, the TGI (SK-OV-3 ovarian) was 41.5 µM, the GI50 (M14 melanoma) was 2.92 µM and the TGI (M14 melanoma) was greater than 54.6 µM. It also gave a GI50 (HOP-62 NSCLC) of 5.76 µM, a TGI (HOP-62 NSCLC) greater than 67.5 µM and a GI50 (HT29 colon) of 4.41 µM. For the same compound, the TGI (HT29 colon) was greater than 54.8 µM, the GI50 (NCI-H23 lung) was 5.56 µM and the TGI (NCI-H23 lung) was greater than 66.8 µM. For the same compound, the GI50 (RPMI-8226 leukemia) was 2.59 µM, the TGI (RPMI-8226 leukemia) was greater than 100 µM and the GI50 (LOX IMVI melanoma) was 4.59 µM. For the same compound, the TGI (LOX IMVI melanoma) was greater than 54.7 µM, the GI50 (MOLT-4 leukemia) was 2.13 µM and the TGI (MOLT-4 leukemia) was greater than 100 µM. The GI50 (EKVX NSCLC) was 0.359 µM, the TGI (EKVX NSCLC) was 13.6 µM and the GI50 (NCI-H460 lung) was 2.88 µM. The TGI (NCI-H460 lung) was 39.5 µM, the GI50 (MCF7 breast) was 0.34 µM and the TGI (MCF7 breast) was greater than 100 µM. It also gave a GI50 (SNB-19 CNS) of 16.5 µM, a TGI (SNB-19 CNS) greater than 100 µM and a GI50 (TK-10 renal) of 5.63 µM. For the same compound, the TGI (TK-10 renal) was greater than 59.5 µM, the GI50 (HS 578T breast) was 1.77 µM and the TGI (HS 578T breast) was 14.4 µM. The GI50 (COLO 205 colon) was 4.76 µM, the TGI (COLO 205 colon) was 23.7 µM and the GI50 (SK-MEL-2 melanoma) was 27.9 µM. The TGI (SK-MEL-2 melanoma) was greater than 86.6 µM, the GI50 (A549 NSCLC) was 4.55 µM and the TGI (A549 NSCLC) was greater than 100 µM. For the same compound, the GI50 (NCI-H522 lung) was 3.05 µM, the TGI (NCI-H522 lung) was greater than 29.1 µM and the GI50 (HCT-116 colon) was 1.02 µM. It also gave a TGI (HCT-116 colon) of 19.7 µM, a GI50 (U251 CNS) of 5.87 µM and a TGI (U251 CNS) greater than 76.3 µM. It also gave a GI50 (HCC-2998 colon) of 5.84 µM and a TGI (HCC-2998 colon) of 39.9 µM.
